Source: patent US5571831A, “Imidazole derivative, and pharmaceutical composition” (Kureha Chemical Industry Co., Ltd., priority 1992, dated 1996)
Converted amounts (≈) assume the structure as drawn.

Columns and labels:
Assay in all cases: Minimum inhibitory concentration (agar medium)
Format in all cases: cell-based
[1] = system: Aspergillus fumigatus IFO 5840; details: IFO5840, 120 h; Aspergillus fumigatus IFO 5840, 27° C., 5 days, Sabouraud dextrose agar
Description: (§1) The minimum inhibitory concentrations (MIC) in vitro of the compounds 1 to 3 of the present invention against microorganisms belonging to the genera Candida and Aspergillus were determined. (1) The strains of the microorganisms used were as follows. The inoculation solutions were prepared at a concentration of 1×10^6 cells/ml. 7) Aspergillus fumigatus IFO 5840 (2) As the medium, a Sabouraud dextrose agar medium (Difco: dextrose 2%, agar 1.8%, not adjusted in pH) was used. The samples of the compounds to be tested were used after dissolved in dimethyl sulfoxide. The concentrations of the samples were from […]. The agar media containing the different concentrations of the compounds to be tested were inoculated with the microorganisms, using a microplanter (Sakuma Seisakusho). The microorganisms belonging to the genera Candida were cultured at 27° C. for 3 days, and the microorganisms belonging to the genus Aspergillus at 27° C. for 5 days.

[2] = system: Aspergillus fumigatus IFO 9733; details: IFO9733, 120 h; Aspergillus fumigatus IFO 9733, 27° C., 5 days, Sabouraud dextrose agar
Description: as §1, with “8)” for “7)”, “9733” for “5840”

[3] = system: Candida albicans ATCC 762; details: ATCC762, 72 h; Candida albicans ATCC 762, 27° C., 3 days, Sabouraud dextrose agar
Description: as §1, with “3) Candida albicans ATCC 762” for “7) Aspergillus fumigatus IFO 5840”

[4] = system: Candida parapsilosis IFO 1396; details: Lodderomyces parapsilosis, IFO1396, 72 h; Candida parapsilosis IFO 1396, 27° C., 3 days, Sabouraud dextrose agar
Description: as §1, with “6) Candida parapsilosis” for “7) Aspergillus fumigatus”, “1396” for “5840”

[5] = system: Candida albicans IFO 1060; details: IFO1060, 72 h; Candida albicans IFO 1060, 27° C., 3 days, Sabouraud dextrose agar
Description: as §1, with “1) Candida albicans” for “7) Aspergillus fumigatus”, “1060” for “5840”

[6] = system: Candida albicans IFO 1270; details: IFO1270, 72 h; Candida albicans IFO 1270, 27° C., 3 days, Sabouraud dextrose agar
Description: as §1, with “2) Candida albicans” for “7) Aspergillus fumigatus”, “1270” for “5840”

[7] = system: Candida krusei IFO 1395; details: Pichia kudriavzevii, IFO1395, 72 h; Candida krusei IFO 1395, 27° C., 3 days, Sabouraud dextrose agar
Description: as §1, with “5) Candida krusei” for “7) Aspergillus fumigatus”, “1395” for “5840”

[8] = system: Candida tropicaris IFO 1400; details: IFO1400, 72 h; Candida tropicaris IFO 1400, 27° C., 3 days, Sabouraud dextrose agar
Description: as §1, with “4) Candida tropicaris” for “7) Aspergillus fumigatus”, “1400” for “5840”

CC1(C)CCC(c2ccc(Cl)cc2)CC1(O)Cn1ccnc1 (racemic) [Compound 2, 2,2-dimethyl-5-(4-chlorophenyl)-1-(1H-imidazol-1-ylmethyl)-cyclohexane-1-ol]
MIC [1]: 100 µg/mL (≈ 314 µM)
MIC [2]: 100 µg/mL (≈ 314 µM)
MIC [3]: 25 µg/mL (≈ 78.4 µM)
MIC [4]: > 100 µg/mL
MIC [5]: 50 µg/mL (≈ 157 µM)
MIC [6]: 25 µg/mL (≈ 78.4 µM)
MIC [7]: > 100 µg/mL
MIC [8]: 100 µg/mL (≈ 314 µM)

CC1(C)CCC(c2ccc(F)cc2)CC1(O)Cn1ccnc1 (racemic) [Compound 1, 2,2-dimethyl-5-(4-fluorophenyl)-1-(1H-imidazol-1-ylmethyl)-cyclohexane-1-ol]
MIC [1]: 50 µg/mL (≈ 165 µM)
MIC [2]: 50 µg/mL (≈ 165 µM)
MIC [3]: 50 µg/mL (≈ 165 µM)
MIC [4]: 50 µg/mL (≈ 165 µM)
MIC [5]: 50 µg/mL (≈ 165 µM)
MIC [6]: 50 µg/mL (≈ 165 µM)
MIC [7]: 50 µg/mL (≈ 165 µM)
MIC [8]: 50 µg/mL (≈ 165 µM)

CC1(C)CC[C@@H](c2ccc(O)cc2)C[C@@]1(O)Cn1ccnc1 (relative stereo) [Compound 3, 2,2-dimethyl-5-(4-hydroxyphenyl)-1-(1H-imidazoly-1-yl-methyl)-cyclohexane-1-ol]
MIC [1]: 200 µg/mL (≈ 666 µM)
MIC [2]: 200 µg/mL (≈ 666 µM)
MIC [3]: 50 µg/mL (≈ 166 µM)
MIC [4]: 200 µg/mL (≈ 666 µM)
MIC [5]: 50 µg/mL (≈ 166 µM)
MIC [6]: 100 µg/mL (≈ 333 µM)
MIC [7]: 200 µg/mL (≈ 666 µM)
MIC [8]: 50 µg/mL (≈ 166 µM)

OC1(Cn2ccnc2)CCCC(c2ccc(F)cc2)C1 (centres unmarked) [Compound C, 3-(4-fluorophenyl)-1-(1H-imidazol-1-ylmethyl)-cyclohexane-1-ol, reference compound]
MIC [1]: > 400 µg/mL
MIC [2]: > 400 µg/mL
MIC [3]: 200 µg/mL (≈ 729 µM)
MIC [4]: > 400 µg/mL
MIC [5]: 200 µg/mL (≈ 729 µM)
MIC [6]: 200 µg/mL (≈ 729 µM)
MIC [7]: > 400 µg/mL
MIC [8]: > 400 µg/mL
